According to patent publication USRE35904E, “Method and probes for detecting nucleoside transporter and method for producing the probes” (Governors of the University of Alberta, priority 1995, dated 1998):

Legend:
[1] = target: T1, es nucleoside transporter (Mus musculus, UniProt Q9JIM1); assay: Concentration-dependence of fluorescent staining of L1210/B23.1 cells by flow cytometry; format: cell-based; settings: 40 min, 4° C., pH 8.0, autofluorescence 298
T1 construct: endogenous in cells; host or cells: L1210/B23.1 mouse leukemia cells
T1 sequence (Q9JIM1 1-460): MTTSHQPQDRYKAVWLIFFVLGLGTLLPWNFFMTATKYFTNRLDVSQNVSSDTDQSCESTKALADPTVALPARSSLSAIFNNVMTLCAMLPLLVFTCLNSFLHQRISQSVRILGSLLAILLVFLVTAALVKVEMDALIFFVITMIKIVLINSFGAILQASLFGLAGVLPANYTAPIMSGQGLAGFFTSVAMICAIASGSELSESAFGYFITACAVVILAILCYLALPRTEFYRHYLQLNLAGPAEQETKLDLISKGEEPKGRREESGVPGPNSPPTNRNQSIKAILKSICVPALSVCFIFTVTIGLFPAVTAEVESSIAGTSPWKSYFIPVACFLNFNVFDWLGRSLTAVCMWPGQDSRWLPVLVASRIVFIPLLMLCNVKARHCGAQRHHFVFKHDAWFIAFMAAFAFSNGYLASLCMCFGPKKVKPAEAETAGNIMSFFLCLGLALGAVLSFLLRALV
Description: (b) Concentration-dependence of fluorescent staining of L 1210/23.1 cells by .[.5-(SAENTA-x2)-fluorescein.]. .Iadd.5-(SAENTA-X2)-fluorescein .Iaddend.was measured and the results are set out in Table 4.
Cells in PBS at pH 8.0 were incubated with the listed concentrations of the SAENTA-fluor probe at 4° C. for 40 min prior to flow cytometric analysis.

[2] = target: T1, es nucleoside transporter; assay: [3H]NBMPR equilibrium binding to L1210/B23.1 cells and its inhibition by SAENTA-fluorescein probes; settings: 22°, replots of Kd(app)/Bmax versus [probe], read-out: Ki (mean ± S.D.)
[3] = target: T1, es nucleoside transporter; assay: Flow cytometric staining of L1210/B23.1 cells (es nucleoside transporter-expressing) by SAENTA-fluorescein probe; format: cell-based
Description: (§1) Flow cytometric measurements of binding of .[.SAENTA-x2 -fluorescein.]. .Iadd.SAENTA-X2-fluorescein .Iaddend.prepared as in Example 3 was carried out as in Example 4 using two clonal lines of cultured mouse leukemia L 1210 cells, L 1210/B23.1 and L 1210/MA-27.1. L 1210/B23.1 expresses NBMPR binding sites and nuclesoside transporter activity whereas L 1210/MA-27.1 cells lack both of these features.
(§2) Staining conditions were chosen to minimise non-specific fluorescence signals from L 1210/MA-27.1 cells treated with the nucleoside.
(§3) Cells were exposed for 10 min at 4° C. to phosphate-buffered (pH 8.0) salts medium containing 40 nM .[.5(SAENTA-xx2)fluorescein.]. .Iadd.5-(SAENTA-X2)-fluorescein .Iaddend.prior to flow cytometric analysis in a BD FACSan instrument; 10^5 cells were analysed. Cells in replicate assay mixtures were also exposed for 5 min at 22° C. to medium containing 10 μM NBMPR and then for 10 min at 4° C. to medium containing both NBMPR and .[.5-SAENTA-x2)-fluorescein.]. .Iadd.5-(SAENTA-X2)-fluorescein.Iaddend..
(a) Clonal lines of mouse leukemia cells were exposed for 10 min at 4° C. to phosphate buffered (pH 8.0) saline containing […] .[.5-(SAENTA-x2)-fluorescein.]. .Iadd.5-(SAENTA-X2)-fluorescein .Iaddend.(prepared as in Example 3) prior to flow cytometric analysis in a BD FACScan instrument; 10^4 cells were analysed. Cells in replicate mixtures were also exposed for 5 min at 22° C. to medium containing 10 μM NBMPR and then for 10 min at 4° C. to medium containing both NBMPR and .[.5-(SAENTA-x2)-fluorescein.]. .Iadd.5-(SAENTA-X2)-fluorescein.Iaddend.. L 1210/B23.1 cells express the es nucleoside transport system whereas L 1210/MA-27.1 cells lack that activity.

L 1210/MA-27.1 cells = assay: Flow cytometric staining of L1210/MA-27.1 cells (lacking es nucleoside transporter); format: cell-based, mouse; settings: with or without NBMPR pretreatment, FIG. 9
Description: as §1, §2, §3
(a) Clonal lines of mouse leukemia cells were exposed for 10 min at 4° C. to phosphate buffered (pH 8.0) saline containing […] .[.5-(SAENTA-x2)-fluorescein.]. .Iadd.5-(SAENTA-X2)-fluorescein .Iaddend.(prepared as in Example 3) prior to flow cytometric analysis in a BD FACScan instrument; 10^4 cells were analysed. […]

[4] = test system: es nucleoside transporter; settings: Gati et al. 1987; cited from earlier work

Row | Compound | Fluorescence intensity ([1]; 5 nM) | Fluorescence intensity ([1]; 10 nM) | Fluorescence intensity ([1]; 20 nM) | Fluorescence intensity ([1]; 40 nM) | Fluorescence intensity ([1]; 60 nM) | Fluorescence intensity ([1]; 80 nM) | Fluorescence intensity ([1]; 160 nM) | Fluorescence intensity ([1]; 320 nM) | Fluorescence intensity ([1]; 640 nM) | Fluorescence intensity ([1]; 1280 nM) | Ki [2] | staining of L1210/B23.1 cells ([3]; 40 mM (so in the source), 10 min, 4° C., pH 8.0, FIG. 9) | specificity of staining of the cell lines ([3]; L1210/B23.1 versus L1210/MA27.1, FIG. 9) | fluorescence of L1210/MA27.1 cells after staining compared with autofluorescence (L 1210/MA-27.1 cells) | non-specific adsorption [4]
1 | O=C1OC2(c3ccc(O)cc3Oc3cc(O)ccc32)c2ccc(NC(=S)NCCSC[C@H]3O[C@@H](n4cnc5c(NCc6ccc([N+](=O)[O-])cc6)ncnc54)[C@H](O)[C@@H]3O)cc21 [5-(SAENTA-X2)-fluorescein, 5'-S-[2-(Fluorescein-5-thioureidyl)ethyl]-N^6-(4-nitrobenzyl)-5'-thioadenosine] | 301 mean channel no. | 344 mean channel no. | 372 mean channel no. | 407 mean channel no. | 427 mean channel no. | 429 mean channel no. | 497 mean channel no. | 601 mean channel no. | 691 mean channel no. | 761 mean channel no. | 0.017 ± 0.008 µM | stained 1210/B23.1 cells | specific for the es nucleoside transporter system | very similar | –
2 | [^125 I]Iodohydroxynitrobenzylthioinosine [[125I]Iodohydroxynitrobenzylthioinosine] | – | – | – | – | – | – | – | – | – | – | – | – | – | – | high non-specific adsorption
